Test system: subjects with AK on the face or scalp
Test: Phase 2a study KX01-AK-002: local skin reactions (grade 0 not present to 4 worst) and adverse events, 0.5 mg KX-01 on 25 cm^2
Type: in vivo, human
Description: An ongoing Phase 2a, open-label, multicenter, activity and safety study of KX-01 administered topically in subjects with AK on the face or scalp is described herein. […] Secondary objectives are to assess the activity of KX-01 administered topically during Days 1-57 based on reduction of AK lesion counts from baseline, assess the safety and tolerability and pharmacokinetics, and contrast the dose regimens (5-day treatment with 3-day treatment) in terms of activity and safety in subjects with AK on the face or scalp. This uncontrolled, nonrandomized trial is being conducted at 16 investigational sites in the United States. Enrollment is sequential for 2 cohorts of approximately 80 subjects each. Enrollment is closed for Cohort 1 and ongoing for Cohort 2. The two treatment cohorts are summarized below: • Cohort 1: 0.5 mg KX-01 administered topically to a contiguous treatment area of 25 cm^2 with 4-8 clinically typical AK lesions for 5 consecutive days • Cohort 2: 0.5 mg KX-01 administered topically to a contiguous treatment area of 25 cm^2 with 4-8 clinically typical AK lesions for 3 consecutive days
0.5 mg KX-01 is administered topically to an area of 25 cm^2 on the face or scalp by site staff on treatment days. […] AK lesion counts are recorded at baseline, days 8, 15, 29, and 57. […] Standardized photography of treatment area is performed at baseline, day 8 and day 57. Plasma samples are being collected at preplanned time points on days 1 and 5 for Cohort 1, and on days 1 and 3 for Cohort 2.
Absence or presence of hyperpigmentation, hypopigmentation and scarring are also assessed. Application site reactions not classified as LSRs are reported as AEs. […] LSRs and AEs are reported separately. All LSRs, pigmentation, and scarring in the treatment area will be followed to resolution or stabilization.
The range of possible composite scores is 0-24.
The Phase 2a trial described in Example 2a was completed with 84 eligible subjects enrolled in each of two cohorts: one cohort was subjected to the treatment for 5 consecutive days, and the other cohort was subjected to the treatment for 3 consecutive days. The results are described below and in FIG. 5.

O=C(Cc1ccc(-c2ccc(OCCN3CCOCC3)cc2)cn1)NCc1ccccc1 [KX-01]
Vesiculation/Pustulation grade 3, n/N subjects (Day 8, Cohort 1 (5-day)): 0
Vesiculation/Pustulation grade 4, n/N subjects (Day 8, Cohort 1 (5-day)): 0
Crusting grade 0, n/N subjects (Day 15, Cohort 1 (5-day)): 63/67
Crusting grade 1, n/N subjects (Day 15, Cohort 1 (5-day)): 4/67
Crusting grade 2, n/N subjects (Day 15, Cohort 1 (5-day)): 0
Crusting grade 3, n/N subjects (Day 15, Cohort 1 (5-day)): 0
Crusting grade 4, n/N subjects (Day 15, Cohort 1 (5-day)): 0
Erosion/Ulceration grade 0, n/N subjects (Day 15, Cohort 1 (5-day)): 66/67
Erosion/Ulceration grade 1, n/N subjects (Day 15, Cohort 1 (5-day)): 1/67
Erosion/Ulceration grade 2, n/N subjects (Day 15, Cohort 1 (5-day)): 0
Erosion/Ulceration grade 3, n/N subjects (Day 15, Cohort 1 (5-day)): 0
Erosion/Ulceration grade 4, n/N subjects (Day 15, Cohort 1 (5-day)): 0
Erythema grade 0, n/N subjects (Day 15, Cohort 1 (5-day)): 27/67
Erythema grade 1, n/N subjects (Day 15, Cohort 1 (5-day)): 25/67
Erythema grade 2, n/N subjects (Day 15, Cohort 1 (5-day)): 13/67
Erythema grade 3, n/N subjects (Day 15, Cohort 1 (5-day)): 2/67
Erythema grade 4, n/N subjects (Day 15, Cohort 1 (5-day)): 0
Flaking/Scaling grade 0, n/N subjects (Day 15, Cohort 1 (5-day)): 39/67
Flaking/Scaling grade 1, n/N subjects (Day 15, Cohort 1 (5-day)): 14/67
Flaking/Scaling grade 2, n/N subjects (Day 15, Cohort 1 (5-day)): 9/67
Flaking/Scaling grade 3, n/N subjects (Day 15, Cohort 1 (5-day)): 5/67
Flaking/Scaling grade 4, n/N subjects (Day 15, Cohort 1 (5-day)): 0
Swelling grade 0, n/N subjects (Day 15, Cohort 1 (5-day)): 67/67
Swelling grade 1, n/N subjects (Day 15, Cohort 1 (5-day)): 0
Swelling grade 2, n/N subjects (Day 15, Cohort 1 (5-day)): 0
Swelling grade 3, n/N subjects (Day 15, Cohort 1 (5-day)): 0
Swelling grade 4, n/N subjects (Day 15, Cohort 1 (5-day)): 0
Vesiculation/Pustulation grade 0, n/N subjects (Day 15, Cohort 1 (5-day)): 67/67
Vesiculation/Pustulation grade 1, n/N subjects (Day 15, Cohort 1 (5-day)): 0
Vesiculation/Pustulation grade 2, n/N subjects (Day 15, Cohort 1 (5-day)): 0
Vesiculation/Pustulation grade 3, n/N subjects (Day 15, Cohort 1 (5-day)): 0
Vesiculation/Pustulation grade 4, n/N subjects (Day 15, Cohort 1 (5-day)): 0
Crusting grade 0, n/N subjects (Day 29, Cohort 1 (5-day)): 65/67
Crusting grade 1, n/N subjects (Day 29, Cohort 1 (5-day)): 2/67
Crusting grade 2, n/N subjects (Day 29, Cohort 1 (5-day)): 0
Crusting grade 3, n/N subjects (Day 29, Cohort 1 (5-day)): 0
Crusting grade 4, n/N subjects (Day 29, Cohort 1 (5-day)): 0
Erosion/Ulceration grade 0, n/N subjects (Day 29, Cohort 1 (5-day)): 67/67
Erosion/Ulceration grade 1, n/N subjects (Day 29, Cohort 1 (5-day)): 0
Erosion/Ulceration grade 2, n/N subjects (Day 29, Cohort 1 (5-day)): 0
Erosion/Ulceration grade 3, n/N subjects (Day 29, Cohort 1 (5-day)): 0
Erosion/Ulceration grade 4, n/N subjects (Day 29, Cohort 1 (5-day)): 0
Erythema grade 0, n/N subjects (Day 29, Cohort 1 (5-day)): 45/67
Erythema grade 1, n/N subjects (Day 29, Cohort 1 (5-day)): 18/67
Erythema grade 2, n/N subjects (Day 29, Cohort 1 (5-day)): 4/67
Erythema grade 3, n/N subjects (Day 29, Cohort 1 (5-day)): 0
Erythema grade 4, n/N subjects (Day 29, Cohort 1 (5-day)): 0
Flaking/Scaling grade 0, n/N subjects (Day 29, Cohort 1 (5-day)): 51/67
Flaking/Scaling grade 1, n/N subjects (Day 29, Cohort 1 (5-day)): 13/67
Flaking/Scaling grade 2, n/N subjects (Day 29, Cohort 1 (5-day)): 2/67
Flaking/Scaling grade 3, n/N subjects (Day 29, Cohort 1 (5-day)): 1/67
Flaking/Scaling grade 4, n/N subjects (Day 29, Cohort 1 (5-day)): 0
Swelling grade 0, n/N subjects (Day 29, Cohort 1 (5-day)): 66/67
Swelling grade 1, n/N subjects (Day 29, Cohort 1 (5-day)): 1/67
Swelling grade 2, n/N subjects (Day 29, Cohort 1 (5-day)): 0
Swelling grade 3, n/N subjects (Day 29, Cohort 1 (5-day)): 0
Swelling grade 4, n/N subjects (Day 29, Cohort 1 (5-day)): 0
Vesiculation/Pustulation grade 0, n/N subjects (Day 29, Cohort 1 (5-day)): 67/67
Vesiculation/Pustulation grade 1, n/N subjects (Day 29, Cohort 1 (5-day)): 0
Vesiculation/Pustulation grade 2, n/N subjects (Day 29, Cohort 1 (5-day)): 0
Vesiculation/Pustulation grade 3, n/N subjects (Day 29, Cohort 1 (5-day)): 0
Vesiculation/Pustulation grade 4, n/N subjects (Day 29, Cohort 1 (5-day)): 0
Crusting grade 0, n/N subjects (Day 57, Cohort 1 (5-day)): 63/67
Crusting grade 1, n/N subjects (Day 57, Cohort 1 (5-day)): 4/67
Crusting grade 2, n/N subjects (Day 57, Cohort 1 (5-day)): 0
Crusting grade 3, n/N subjects (Day 57, Cohort 1 (5-day)): 0
Crusting grade 4, n/N subjects (Day 57, Cohort 1 (5-day)): 0
Erosion/Ulceration grade 0, n/N subjects (Day 57, Cohort 1 (5-day)): 67/67
Erosion/Ulceration grade 1, n/N subjects (Day 57, Cohort 1 (5-day)): 0
Erosion/Ulceration grade 2, n/N subjects (Day 57, Cohort 1 (5-day)): 0
Erosion/Ulceration grade 3, n/N subjects (Day 57, Cohort 1 (5-day)): 0
Erosion/Ulceration grade 4, n/N subjects (Day 57, Cohort 1 (5-day)): 0
Erythema grade 0, n/N subjects (Day 57, Cohort 1 (5-day)): 53/67
Erythema grade 1, n/N subjects (Day 57, Cohort 1 (5-day)): 12/67
Erythema grade 2, n/N subjects (Day 57, Cohort 1 (5-day)): 2/67
Erythema grade 3, n/N subjects (Day 57, Cohort 1 (5-day)): 0
Erythema grade 4, n/N subjects (Day 57, Cohort 1 (5-day)): 0
Flaking/Scaling grade 0, n/N subjects (Day 57, Cohort 1 (5-day)): 57/67
Flaking/Scaling grade 1, n/N subjects (Day 57, Cohort 1 (5-day)): 10/67
Flaking/Scaling grade 2, n/N subjects (Day 57, Cohort 1 (5-day)): 0
Flaking/Scaling grade 3, n/N subjects (Day 57, Cohort 1 (5-day)): 0
Flaking/Scaling grade 4, n/N subjects (Day 57, Cohort 1 (5-day)): 0
Swelling grade 0, n/N subjects (Day 57, Cohort 1 (5-day)): 67/67
Swelling grade 1, n/N subjects (Day 57, Cohort 1 (5-day)): 0
Swelling grade 2, n/N subjects (Day 57, Cohort 1 (5-day)): 0
Swelling grade 3, n/N subjects (Day 57, Cohort 1 (5-day)): 0
Swelling grade 4, n/N subjects (Day 57, Cohort 1 (5-day)): 0
Vesiculation/Pustulation grade 0, n/N subjects (Day 57, Cohort 1 (5-day)): 67/67
Vesiculation/Pustulation grade 1, n/N subjects (Day 57, Cohort 1 (5-day)): 0
Vesiculation/Pustulation grade 2, n/N subjects (Day 57, Cohort 1 (5-day)): 0
Vesiculation/Pustulation grade 3, n/N subjects (Day 57, Cohort 1 (5-day)): 0
Vesiculation/Pustulation grade 4, n/N subjects (Day 57, Cohort 1 (5-day)): 0
Grade 4 LSRs (after 5 days of treatment, interim): no Grade 4 LSRs were observed
Safety and tolerability (topically once daily for 5 days): safe and well tolerated

Reference: US10617693B2, “Methods of treating and/or preventing actinic keratosis” (Athenex, Inc., priority 2017, dated 2020)
